“And” between values parts separate entries of the source, which are not always exact repeats. Equal entries are not always repeated.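 Results reflect a 48-hour exposure of cells in 96-well plates to compound at five concentrations. Here, GI50 denotes the concentration required for 50% inhibition of growth. Definition used: TGI = concentration required for complete inhibition of growth.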
What was measured:
Test in all cases: NCI tumour cell line growth inhibition, 48 h
[1] = system: TK-10 renal
[2] = system: SK-OV-3 ovarian
[3] = system: CCRF-CEM leukemia
[4] = system: SK-MEL-28 melanoma
[5] = system: UACC-257 melanoma
[6] = system: HOP-62 NSCLC
[7] = system: NCI/ADR-RES ovarian
[8] = system: SNB-75 CNS
[9] = system: NCI-H226 lung
[10] = system: T-47D breast
[11] = system: SW-620 colon

| SMILES | TGI [1] | TGI [2] | TGI [3] | TGI [4] [µM] | TGI [5] | TGI [6] | TGI [7] | TGI [8] [µM] | TGI [9] [µM] | TGI [10] [µM] | TGI [11] | GI50 [1] [µM] | GI50 [2] [µM] | GI50 [3] [µM] | GI50 [4] [µM] | GI50 [5] [µM] | GI50 [6] [µM] | GI50 [7] [µM] | GI50 [10] [µM] | GI50 [11] [µM] |
| --- | --- | --- | --- | --- | --- | --- | --- | --- | --- | --- | --- | --- | --- | --- | --- | --- | --- | --- | --- | --- |
| C[C@@](Br)(C(=O)O)[C@H](Br)C(=O)O | > 100 µM | > 100 µM | > 100 µM | > 100 | > 100 µM | > 100 µM | > 100 µM | > 100 | > 100 | > 100 | > 100 µM |  |  |  |  |  |  |  |  |  |
| Cc1nn(C(=O)c2ccccc2O)c2c1C(c1ccc([N+](=O)[O-])cc1)SC(N)=N2 (stereo not drawn) | > 10 µM | > 10 µM | > 9.13 µM | > 10 | > 10 µM | > 10 µM | > 10 µM | > 8.41 | > 9.22 | > 10 | > 10 µM |  |  |  |  |  |  |  |  |  |
| CC(=O)Nc1ccc2c(c1)nc1c3ccccc3ccn21 | > 100 µM | > 100 µM | > 100 µM | > 100 | > 100 µM | > 100 µM | > 100 µM | > 100 | > 100 | > 100 | > 100 µM |  |  |  |  |  |  |  |  |  |
| CC(C)(C)C#CI1OC(=O)c2ccccc21 | 15.8 µM | 25.1 µM | 6.09 µM | 17.8 | 25.7 µM | 27.2 µM | > 45.4 µM | 16 | 15.2 | 14.7 | 10.3 µM |  |  |  |  |  |  |  |  |  |
| Cn1c2ccccc2c2c3c(=O)[nH][nH]c(=O)c3c3c4ccccc4n(C)c3c21 | > 100 µM | > 100 µM | > 100 µM | > 100 | > 100 µM | > 100 µM | > 100 µM | > 100 | > 100 | > 100 | > 100 µM |  |  |  |  |  |  |  |  |  |
| COc1ccc2c(c1)CCC(CN1CCN(CCOC(c3ccccc3)c3ccccc3)CC1)C2O (stereo not drawn) | 28.6 µM | 35.8 µM | 53.4 µM | 31.9 | 27.2 µM | 38.3 µM | 27.4 µM | 34.5 | 34.1 | 47.8 | 60.1 µM |  |  |  |  |  |  |  |  |  |
| Oc1ccc(C[C@@H]2CN[C@H](Cc3ccc(O)c(Br)c3)CN2)cc1 | > 100 µM | > 100 µM | > 100 µM | > 100 | > 100 µM | > 100 µM | > 100 µM | > 100 | > 100 | > 100 | > 100 µM |  |  |  |  |  |  |  |  |  |
| C[C@@H](CCO)OC1OC(COC(=O)C(C)(C)C)C(OC(=O)C(C)(C)C)C(OC(=O)C(C)(C)C)C1OC(=O)C(C)(C)C (stereo partly drawn) | > 100 µM | > 100 µM | > 100 µM | > 100 | > 100 µM | > 100 µM | > 100 µM | > 100 | > 100 | > 100 | > 100 µM |  |  |  |  |  |  |  |  |  |
| CCC(C)C(NC(=O)C(CCCC[N+](=N)N)NC(=O)C(CCCC[N+](=N)N)NC(=O)c1ccc(OC)cc1)C(=O)NC(CCCC[N+](=N)N)C(=O)N1CCCC1C(=O)NC(CCCCN)C(=O)NC(CC(C)C)C(N)=O (stereo not drawn) | > 100 µM | > 100 µM | > 100 µM | > 100 | > 100 µM | > 100 µM | > 100 µM | > 100 | > 100 | > 100 | > 100 µM |  |  |  |  |  |  |  |  |  |
| COc1ccc(C(=O)/C=C/c2ccc(OCCCCCCCCCCOc3ccc(/C=C/C(=O)c4ccc(OC)c(OC)c4)cc3)cc2)c(OC)c1 | > 100 µM | > 100 µM | > 100 µM | > 100 | > 100 µM | > 100 µM | > 100 µM | > 100 | > 100 | > 100 | > 100 µM |  |  |  |  |  |  |  |  |  |
| CC(C)(C)[Si](C)(C)OC1CCOC1(O)c1ccccn1 (stereo not drawn) | > 100 µM | > 100 µM | > 100 µM | > 100 | > 100 µM | > 100 µM | > 100 µM | > 100 | > 100 | > 100 | > 100 µM |  |  |  |  |  |  |  |  |  |
| CCOC(=O)c1c(-c2ccc(OC)cc2)c(C#N)c(=S)n(C2OC(CO)C(O)C(O)C2O)c1C (stereo not drawn) | > 100 µM | > 100 µM | > 100 µM | > 100 | > 100 µM | > 100 µM | > 100 µM | > 100 | > 100 | > 100 | > 100 µM |  |  |  |  |  |  |  |  |  |
| Cc1ccc(S(=O)(=O)N2CCc3cc(O)c([N+](=O)[O-])cc32)cc1 | > 100 µM | > 100 µM | > 100 µM | > 100 | > 100 µM | > 100 µM | > 100 µM | > 100 | > 100 | > 100 | > 100 µM |  |  |  |  |  |  |  |  |  |
| O=C(CCl)Nc1ccc(C(=O)N/N=C/c2ccc(Cl)cc2)cc1 | 3.91 µM and 29.5 µM | 8.02 µM and 24.7 µM | 5.32 µM and 4.46 µM | 16.8 | 3.73 µM and 25 µM | 3.45 µM and 14.7 µM | 8 µM and 3.38 µM | 30.5 | 35.3 |  | 6.81 µM and 7.06 µM | 1.83 | 12.3 | 2.23 | 3.59 | 12.2 | 1.74 | 1.5 | 0.195 | 3.35 |
| Brc1ccc(/C(N=N/C(=N\Sc2ccccc2)c2ccc(Br)cc2)=N/Sc2ccccc2)cc1 | > 100 µM | > 100 µM | > 100 µM | > 100 | > 100 µM | > 100 µM | > 100 µM | > 100 | > 100 | > 100 | > 100 µM |  |  |  |  |  |  |  |  |  |
| COC(=O)Cc1c2n(c3ccccc13)C(=O)N1c3ccccc3C(CC(=O)OC)C21 (stereo not drawn) | 47.7 µM | > 100 µM | > 100 µM | > 100 | > 100 µM | 38.5 µM | > 100 µM | 28.5 | > 100 | > 100 | > 100 µM |  |  |  |  |  |  |  |  |  |
| Brc1ccc2[nH]cc(-c3csc(-c4c[nH]c5ccc(Br)cc45)n3)c2c1 | 8.19 µM | 8.09 µM | 3.93 µM | 5.31 | 9.05 µM | 13.7 µM | 6.29 µM | 7.27 | 5.1 | 12.2 | 4.42 µM |  |  |  |  |  |  |  |  |  |
| CO[C@H](C)[C@](O)(C(=O)OCC1=CCN2CC[C@@H](O)[C@H]12)C(C)C | > 100 µM | > 100 µM | > 100 µM | > 100 | > 100 µM | > 100 µM | > 100 µM | > 100 | > 100 | > 100 | > 100 µM |  |  |  |  |  |  |  |  |  |
| O=C1C=CC(=O)c2c(O)c(N3CCN(c4ncccn4)CC3)c(Cl)c(O)c21 | 3.47 µM | 38.6 µM | 4.24 µM | 4.57 | 3.45 µM | 5.63 µM | 8.69 µM | 21.8 | 44.8 | 5.7 | 2.97 µM |  |  |  |  |  |  |  |  |  |
| O=C1CCC(CCc2nc3ccccc3[nH]2)(c2ccccc2)C(=O)N1 (stereo not drawn) | > 100 µM | > 100 µM | > 100 µM | > 100 | > 100 µM | > 100 µM | > 100 µM | > 100 | > 100 | > 100 | > 100 µM |  |  |  |  |  |  |  |  |  |
| CCOC(=O)OC1(c2ccccc2)CCN(C)CC1 | > 100 µM | > 100 µM | > 100 µM | > 100 | > 100 µM | > 100 µM | > 100 µM | > 100 | > 100 | > 100 | > 100 µM |  |  |  |  |  |  |  |  |  |
| CN1C2CCC1C(CO)C(=O)C2 (stereo not drawn) | 59.3 µM | > 100 µM | 27.4 µM | > 100 | > 100 µM | > 100 µM | > 100 µM | > 100 | > 100 | 48.1 | 43.2 µM |  |  |  |  |  |  |  |  |  |
| Cc1nc2ccccc2n1Cc1ccc(NC(=S)Nc2ccccc2)cc1 | > 100 µM | > 100 µM | > 100 µM | > 100 | > 100 µM | > 100 µM | > 100 µM | > 100 | > 100 | > 100 | > 100 µM |  |  |  |  |  |  |  |  |  |
| O=C1c2cccnc2C(=O)c2c1nc1ccccc1c2-c1ccc2c3c(nc4ccccc42)C(=O)c2cccnc2-c13 | 19.1 µM | 18.5 µM | 15.5 µM | 13.5 | 5.38 µM | 22.9 µM | 5.16 µM | 8.28 | 7.55 | 19.4 | 4.79 µM |  |  |  |  |  |  |  |  |  |
| CN(C)CN1C(=O)/C(=N\n2c(-c3ccncc3)n[nH]c2=S)c2ccccc21 | > 100 µM | > 100 µM | > 100 µM | > 100 | 32.9 µM | 84.7 µM | > 100 µM | > 100 | > 100 | > 100 | > 100 µM |  |  |  |  |  |  |  |  |  |
